One assay deals with human SSTR-1 (Homo sapiens, UniProt P30872). Briefly: Somatostatin receptor binding assay, hSSTR-1.
In a further assay the target is human SSTR-2 (Homo sapiens, UniProt P30874). Briefly: Somatostatin receptor binding assay, hSSTR-2.
The target in the next assay is human SSTR-3 (Homo sapiens, UniProt P32745). Briefly: Somatostatin receptor binding assay, hSSTR-3.
The test system of assay [1] is H. pylori ATCC43504. Briefly: H. pylori proliferation in Brucella broth, strain ATCC43504. Format: cell-based. As to conditions: for ATCC43504 bacteria number: 10^-11 mol/L, 48 h.
The target of the next assay is human SSTR-5 (Homo sapiens, UniProt P35346). Briefly: Somatostatin receptor binding assay, hSSTR-5.
The next assay addresses human SSTR-4 (Homo sapiens, UniProt P31391). Briefly: Somatostatin receptor binding assay, hSSTR-4.
For assay [2], the system named is H. pylori ATCC43504. To be noted: ATCC43504, 48 h.
Setting [3] is: [125I-Tyr11]somatostatin-14, CHO-K1 membranes, read-out: Ki hSSTR-1.
Where [4] appears, read: [125I-Tyr11]somatostatin-14, CHO-K1 membranes, read-out: Ki hSSTR-2.
[5] abbreviates: [125I-Tyr11]somatostatin-14, CHO-K1 membranes, read-out: Ki hSSTR-3.
Setting [6] is: [125I-Tyr11]somatostatin-14, CHO-K1 membranes.

Read-outs that look alike come from different tables or passages of the source. Positions of bridges follow the written chain, without caps; N, C: chain ends. Non-standard residues stand in square brackets, D forms with d. Residues, ends and D or L forms follow the SMILES beside them. *: point of attachment. X1 = O=C(CN1CCN(CCO)CC1)*

human SSTR-5, sequence (P35346 whole entry): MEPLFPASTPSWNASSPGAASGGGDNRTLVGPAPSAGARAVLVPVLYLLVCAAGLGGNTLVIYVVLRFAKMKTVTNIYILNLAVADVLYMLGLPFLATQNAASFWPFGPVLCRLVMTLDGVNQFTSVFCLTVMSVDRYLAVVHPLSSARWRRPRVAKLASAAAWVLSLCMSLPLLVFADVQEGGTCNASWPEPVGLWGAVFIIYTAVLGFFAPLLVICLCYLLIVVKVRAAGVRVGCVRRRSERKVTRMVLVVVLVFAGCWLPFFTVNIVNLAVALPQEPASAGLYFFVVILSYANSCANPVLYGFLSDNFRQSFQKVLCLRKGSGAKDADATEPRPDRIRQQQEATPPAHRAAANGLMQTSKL
human SSTR-2, sequence (P30874 whole entry): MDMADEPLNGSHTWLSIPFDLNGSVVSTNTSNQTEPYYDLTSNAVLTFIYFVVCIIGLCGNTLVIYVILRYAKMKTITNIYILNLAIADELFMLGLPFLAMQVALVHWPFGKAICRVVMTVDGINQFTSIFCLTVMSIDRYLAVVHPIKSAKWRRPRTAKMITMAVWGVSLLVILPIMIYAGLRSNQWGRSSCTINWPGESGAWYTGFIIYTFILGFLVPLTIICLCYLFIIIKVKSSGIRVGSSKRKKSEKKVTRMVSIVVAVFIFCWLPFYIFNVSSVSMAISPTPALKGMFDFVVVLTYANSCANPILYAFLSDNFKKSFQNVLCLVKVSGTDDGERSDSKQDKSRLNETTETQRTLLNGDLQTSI
human SSTR-1, sequence (P30872 whole entry): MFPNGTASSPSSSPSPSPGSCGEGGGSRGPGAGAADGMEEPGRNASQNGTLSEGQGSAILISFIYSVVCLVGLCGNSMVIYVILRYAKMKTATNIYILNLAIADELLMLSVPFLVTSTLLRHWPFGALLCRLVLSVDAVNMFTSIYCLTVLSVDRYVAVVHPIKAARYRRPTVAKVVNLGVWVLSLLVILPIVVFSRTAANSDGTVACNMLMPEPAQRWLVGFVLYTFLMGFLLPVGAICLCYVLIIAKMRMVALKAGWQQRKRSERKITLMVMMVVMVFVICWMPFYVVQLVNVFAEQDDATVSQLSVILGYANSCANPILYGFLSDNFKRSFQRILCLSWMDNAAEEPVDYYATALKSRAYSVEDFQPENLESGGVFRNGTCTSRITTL
human SSTR-3, sequence (P32745 whole entry): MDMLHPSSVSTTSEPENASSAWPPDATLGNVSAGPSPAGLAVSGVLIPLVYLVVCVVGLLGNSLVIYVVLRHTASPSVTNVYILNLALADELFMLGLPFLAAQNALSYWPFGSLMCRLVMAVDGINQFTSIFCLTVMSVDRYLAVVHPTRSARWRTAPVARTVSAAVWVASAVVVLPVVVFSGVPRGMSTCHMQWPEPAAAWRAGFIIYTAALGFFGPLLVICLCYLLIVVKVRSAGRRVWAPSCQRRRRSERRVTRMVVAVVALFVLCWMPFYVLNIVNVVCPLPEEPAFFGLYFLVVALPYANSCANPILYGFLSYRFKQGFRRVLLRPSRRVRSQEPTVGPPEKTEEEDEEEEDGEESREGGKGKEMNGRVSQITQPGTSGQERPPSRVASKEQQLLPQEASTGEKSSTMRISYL
human SSTR-4, sequence (P31391 whole entry): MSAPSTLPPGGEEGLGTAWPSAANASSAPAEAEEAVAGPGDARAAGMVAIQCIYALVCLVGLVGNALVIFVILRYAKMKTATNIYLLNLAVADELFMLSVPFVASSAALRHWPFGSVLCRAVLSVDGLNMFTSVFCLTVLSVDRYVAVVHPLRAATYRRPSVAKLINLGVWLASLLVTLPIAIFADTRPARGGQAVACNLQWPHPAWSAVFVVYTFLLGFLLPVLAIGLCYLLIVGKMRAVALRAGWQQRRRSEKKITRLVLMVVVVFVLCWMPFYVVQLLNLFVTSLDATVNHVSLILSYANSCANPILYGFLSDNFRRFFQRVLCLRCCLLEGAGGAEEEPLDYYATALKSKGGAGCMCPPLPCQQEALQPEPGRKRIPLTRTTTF

Broadly, the Ki is the equilibrium dissociation constant of an inhibitor or competing ligand from its target. For `C[C@@H](O)[C@H](NC(=O)[C@@H]1CSSC[C@H](NC(=O)[C@H](N)Cc2ccc3ccccc3c2)C(=O)N[C@@H](Cc2ccc(O)cc2)C(=O)N[C@H](Cc2c[nH]c3ccccc23)C(=O)N[C@@H](CCCCN)C(=O)N[C@@H]([C@@H](C)O)C(=O)N1)C(N)=O` [Example 1, H-D-β-Nal-Cys-Tyr-D-Trp-Lys-Thr-Cys-Thr-NH2], the results for the Ki at human SSTR-1, on human SSTR-2 and on human SSTR-3 were 2410 nM, 0.75 nM and 97.9 nM, respectively.
Turning to `CC(C)[C@@H]1NC(=O)[C@H](CCCCN)NC(=O)[C@@H](Cc2c[nH]c3ccccc23)NC(=O)[C@H](Cc2ccc(O)cc2)NC(=O)[C@H](C)N(C)C(=O)[C@H](Cc2ccccc2)NC1=O` [Example 76, cyclo(N-Me-Ala-Tyr-D-Trp-Lys-Val-Phe)], the “affinity for type 2 (in words)” value on human SSTR-2 is “high affinity”. Besides, the ATCC43504 bacteria number with H. pylori ATCC43504 [1] is on record as 2.7 ± 1.3 ×10^5 CFU/mL.
For the molecule `C[C@@H](O)[C@@H]1NC(=O)[C@H](CCCCN)NC(=O)[C@@H](Cc2c[nH]c3ccccc23)NC(=O)[C@H](Cc2ccccc2)NC(=O)[C@H](Cc2ccccc2)NC(=O)[C@@H](N)CSSC[C@@H](C(N)=O)NC(=O)[C@H](Cc2ccccc2)NC1=O` [Example 107, H-Cys-Phe-Phe-D-Trp-Lys-Thr-Phe-Cys-NH2] (H-CFF[dW]KTFC-NH2; disulfide 1-8 (inferred)), the “affinity for type 1 (in words)” value on human SSTR-1 is “some affinity”. In addition, the “affinity for type 3 (in words)” value on human SSTR-3 is listed as “some affinity”. Also, the “affinity for type 5 (in words)” value at human SSTR-5 was “high affinity”. Moreover, the ATCC43504 bacteria number in the assay with H. pylori ATCC43504 [1] is recorded as 6.5 ± 0.7 ×10^5 CFU/mL.
For the molecule `NCCCC[C@@H]1NC(=O)[C@@H](Cc2c[nH]c3ccccc23)NC(=O)[C@H](Cc2ccccc2)NC(=O)[C@H](Cc2ccccc2)NC(=O)[C@@H](N)CSSC[C@@H](C(N)=O)NC(=O)[C@H](Cc2ccccc2)NC(=O)[C@H](CO)NC1=O` [Example 108, H-Cys-Phe-Phe-D-Trp-Lys-Ser-Phe-Cys-NH2] (H-CFF[dW]KSFC-NH2; disulfide 1-8 (inferred)), the Ki amounted to 27.9 nM on human SSTR-1 (setting [3]), 19.3 nM at human SSTR-2 (setting [4]), 35.6 nM at human SSTR-3 (setting [5]) and 0.85 nM at human SSTR-5 (setting [6]).
In the case of `C[C@@H](O)[C@@H]1NC(=O)[C@H](CCCCN)NC(=O)[C@@H](Cc2c[nH]c3ccccc23)NC(=O)[C@H](Cc2ccc(O)cc2)NC(=O)[C@H](Cc2ccccc2)NC(=O)[C@@H](N)CSSC[C@@H](C(N)=O)NC(=O)[C@H](Cc2ccccc2)NC1=O` [Example 109, H-Cys-Phe-Tyr-D-Trp-Lys-Thr-Phe-Cys-NH2] (H-CFY[dW]KTFC-NH2; disulfide 1-8 (inferred)), the inhibitory constant (Ki) at human SSTR-1 (setting [3]) was 86.9 nM; at human SSTR-2 (setting [4]) it was 6.19 nM; at human SSTR-3 (setting [5]), 9.7 nM; at human SSTR-5 (setting [6]) it was 0.34 nM. For the same molecule, the “affinity for type 2 (in words)” value on human SSTR-2 is “high affinity”. Further, at human SSTR-3, the “affinity for type 3 (in words)” value is reported as “high affinity”. Also, the “affinity for type 4 (in words)” value at human SSTR-4 is recorded as “high affinity”. Besides, the ATCC43504 bacteria number in the assay with H. pylori ATCC43504 [1] is listed as 1.4 ± 0.5 ×10^5 CFU/mL.
For `C[C@@H](O)[C@H](NC(=O)[C@H](Cc1ccccc1)NC(=O)[C@@H](NC(=O)[C@H](CCCCN)NC(=O)[C@@H](Cc1c[nH]c2ccccc12)NC(=O)[C@H](Cc1ccccc1)NC(=O)[C@H](Cc1ccccc1)NC(=O)[C@H](N)Cc1ccccc1)[C@@H](C)O)C(N)=O` [Example 114, H-D-Phe-Phe-Phe-D-Trp-Lys-Thr-Phe-Thr-NH2] (H-[dF]FF[dW]KTFT-NH2), the “affinity for type 3 (in words)” value on human SSTR-3 is recorded as “high affinity”. The “affinity for type 5 (in words)” value at human SSTR-5 is given as “high affinity”. In addition, the ATCC43504 bacteria number with H. pylori ATCC43504 [1] was 9.8 ± 2.0 ×10^5 CFU/mL.
With `C[C@@H](O)[C@H](NC(=O)[C@H](Cc1ccccc1)NC(=O)[C@@H](NC(=O)[C@H](CCCCN)NC(=O)[C@@H](Cc1c[nH]c2ccccc12)NC(=O)[C@H](Cc1ccccc1)NC(=O)[C@H](Cc1ccccc1)NC(=O)[C@@H](Cc1ccccc1)NC(=O)CN1CCN(CCO)CC1)[C@@H](C)O)C(N)=O` [Example 118] (X1-[dF]FF[dW]KTFT-NH2), the inhibition constant Ki at human SSTR-1 (read-out: Ki hSSTR-1) came out at 47.7 nM; at human SSTR-2 (read-out: Ki hSSTR-2), 3.23 nM; on human SSTR-3 (read-out: Ki hSSTR-3), 10.9 nM; on human SSTR-4, 753 nM; on human SSTR-5, 1.01 nM.
`C[C@H](N)C(=O)NCC(=O)N[C@H]1CSSC[C@@H](C(=O)O)NC(=O)[C@H](CO)NC(=O)[C@H]([C@@H](C)O)NC(=O)[C@H](Cc2ccccc2)NC(=O)[C@H]([C@@H](C)O)NC(=O)[C@H](CCCCN)NC(=O)[C@H](Cc2c[nH]c3ccccc23)NC(=O)[C@H](Cc2ccccc2)NC(=O)[C@H](Cc2ccccc2)NC(=O)[C@H](CC(N)=O)NC(=O)[C@H](CCCCN)NC1=O` [somatostatin]: in the assay with H. pylori ATCC43504 [1], the “decrease of bacteria number / suppression of ATCC43504 proliferation” value worked out at 49% and the “inhibition of ATCC43504 proliferation (in words)” value was “inhibited proliferation of ATCC43504 in a dose-dependent manner”. Also, the NCTC11638 bacteria number with H. pylori NCTC11638 is on record as 1.6±0.2 ×10^6 CFU/mL. The “inhibition of NCTC11638” value in the assay on H. pylori NCTC11638 (NCTC11638, 48 h) worked out at 90%. For the same molecule, in the assay on H. pylori NCTC11916, the NCTC11916 bacteria number is given as 2.6±0.2 ×10^6 CFU/mL. Besides, in the assay with H. pylori NCTC11916 (NCTC11916, 48 h), the “inhibition of NCTC11916” value is on record as 79%. Moreover, the “inhibition of H. pylori proliferation by somatostatin” value in the assay on H. pylori ATCC43504 [2] worked out at 88%.

These data come from patent US5968903A, “Inhibition of H. pylori proliferation” (Biomeasure, Incorporated, priority 1998, dated 1999).
